Data: US11478451B1, “Macrocyclic chlorine substituted indole derivatives” (Bayer Aktiengesellschaft, priority 2017, dated 2022)
Structures can show the parent of a compound that is named as a salt. Where two headings read alike, the source gives them in different places.

Assays:
SUDHL10 cells [1] = assay: Induction of caspase-3/7 activity (Caspase-Glo 3/7), SUDHL10; type: cell-based; conditions: EC50, median, SUDHL10, 3 h treatment
In short: (§1)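 Caspase-3/7 activation serves as the apoptosis read-out for MCL-1 inhibition. Cells are treated with compound for 3 h at 37 °C and assayed with Caspase-Glo 3/7; values are corrected by subtracting medium-only background.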

AMO-1 cells = assay: Antiproliferation assay (CellTiter-Glo, 72 h), AMO-1; type: cell-based; conditions: IC50, median, AMO-1, 72 h, read-out: Antiproli AMO-1 [M] median
In short: (§2)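 Cells plated in treatment plates plus a day 0 reference plate; incubated 72 h at 37 °C; CellTiter-Glo added, 10 min incubation, luminescence read; day 0 plate read at time zero.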

HMC-1-8 cells = assay: Antiproliferation assay (CellTiter-Glo, 72 h), HMC-1-8; type: cell-based; conditions: IC50, median, HMC-1-8, 72 h, read-out: Antiproli HMC-1-8 [M] median
In short: as §2

SNU-389 cells = assay: Antiproliferation assay (CellTiter-Glo, 72 h), SNU-389; type: cell-based; conditions: 72 h; read-out: Antiproli SNU-389 [M] median
Method: (§3) Assessment of the Anti-Proliferative Effect of Compounds in Different Cell Lines
(§4) The impact of compounds on the proliferation of different cell lines was assessed using the CellTiter-Glo® Luminescent Cell Viability reagent from Promega (G7573).
(§5) In parallel, cells were plated in a reference (day 0) plate for time zero determination.
(§6) Rim wells were excluded. The cells were incubated for 72 h hours in a humidified incubator at 37° C. The day 0 plate was measured by adding 30 μL/well of CTG solution (CellTiter-Glo® Luminescent Cell Viability reagent, Promega G7573) to time zero wells in the reference plate followed by a 10 minutes incubation and luminescence reading at 0.1 ms. using the PHERAstar FS microplate reader (BMG Labtech).
(§7) After 72 h incubation, the treated plates were measured in the same way as the day 0 plate mentioned above.

DMS-114 cells = assay: Antiproliferation assay (CellTiter-Glo, 72 h), DMS-114; type: cell-based; conditions: Homo sapiens, DMS-114, 72 h; read-out: Antiproli DMS-114 [M] median
Method: as §3, §4, §5, §6, §7

SUDHL5 cells [2] = assay: Induction of caspase-3/7 activity (Caspase-Glo 3/7), SUDHL5; type: cell-based; conditions: EC50, median, SUDHL5, 3 h treatment
In short: as §1

SUDHL5 cells [3] = assay: Antiproliferation assay (CellTiter-Glo, 72 h), SUDHL5; type: cell-based; conditions: IC50, median, SUDHL5, 72 h, read-out: Antiproli SUDHL5 [M] (median)
In short: as §2

SUDHL5 cells [4] = assay: Induction of cytotoxicity (CellTiter-Glo, 5 h), SUDHL5; conditions: SUDHL5, 5 h
SUDHL10 cells [5] = assay: Induction of cytotoxicity (CellTiter-Glo, 5 h), SUDHL10; conditions: SUDHL10, 5 h
[6] = from CCOC(=O)c1[nH]c2c(-c3c(CCCOCCO)nn(C)c3CC)c(Cl)ccc2c1CCCOc1cccc2cc(F)ccc12, amine bond, NaH, DMF, 47.5 mM, 40.0 °C, 3 steps
[7] = read-out: Cytotox SUDHL5 [M] (median), IC50, median
[8] = read-out: Cytotox SUDHL10 [M] (median), IC50, median
[9] = Homo sapiens, SU-DHL-5, 5 h, read-out: Cytotox SUDHL5 [M] (median), IC50, median
[10] = Homo sapiens, SU-DHL10, 5 h, read-out: Cytotox SUDHL10 [M] (median), IC50, median

SMILES	EC50 (SUDHL10 cells [1]; Homo sapiens, SU-DHL10, 3 h) [nM]	IC50 (AMO-1 cells; Homo sapiens, AMO1, 72 h) [M]	IC50 (HMC-1-8 cells; 72 h) [M]	IC50 (SNU-389 cells) [M]	IC50 (DMS-114 cells) [M]	EC50 (SUDHL5 cells [2]) [nM]	EC50 (SUDHL10 cells [1]) [nM]	IC50 (SUDHL5 cells [3]) [M]	IC50 (AMO-1 cells) [M]	IC50 (HMC-1-8 cells) [M]	IC50 (SUDHL5 cells [4]; [7]) [M]	IC50 (SUDHL10 cells [5]; [8]) [M]	IC50 (SUDHL5 cells [4]; [9]) [M]	IC50 (SUDHL10 cells [5]; [10]) [M]	EC50 (SUDHL5 cells [2]; Homo sapiens, SU-DHL-5, 3 h) [nM]	IC50 (SUDHL5 cells [3]; Homo sapiens, SU-DHL-5, 72 h) [M]	ring closure, yield of all isomers [6] [%]
CCc1c2c(nn1C)CN(C)CCCCn1c(C(=O)O)c(CCCOc3cccc4ccccc34)c3ccc(Cl)c-2c31 (single isomer, unassigned; enantiomer 1) [Example 23, 4-chloro-3-ethyl-2,14-dimethyl-7-[3-(naphthalen-1-yloxy)propyl]-10,11,12,13,14,15-hexahydro-2H-pyrazolo[3′,4′:8,9][1,6]diazacycloundecino[10,11,1-hi]indole-8-carboxylic acid (Enantiomer 1)]	180	6.1e-07	5.2e-06	1.7e-06	2.06e-06												
Cc1c2c(nn1C)COCC(F)(F)CCn1c(C(=O)O)c(CCCOc3cccc4ccccc34)c3ccc(Cl)c-2c31 (single isomer, unassigned; enantiomer 1) [Example 56, 4-chloro-12,12-difluoro-2,3-dimethyl-7-{3-[(naphthalen-1-yl)oxy]propyl}-2,10,11,12,13,15-hexahydropyrazolo[4′,3′:9,10][1,6]oxazacycloundecino[8,7,6-hi]indole-8-carboxylic acid-N-ethylethanamine salt—Enantiomer 1]				1.23e-06	7.79e-07	130	310	3.4e-07	4.4e-07	3.3e-06	2.2e-07	3.3e-07					
CCc1nn(C)c2c1-c1c(Cl)ccc3c(CCCOc4cccc5cc(F)ccc45)c(C(=O)O)n(c13)CCCCN(C)C2 (single isomer, unassigned; enantiomer 2) [Example 41, 4-chloro-3-ethyl-7-{3-[(6-fluoronaphthalen-1-yl)oxy]propyl}-1,14-dimethyl-10,11,12,13,14,15-hexahydro-1H-pyrazolo[3′,4′:8,9][1,6]diazacycloundecino[10,11,1-hi]indole-8-carboxylic acid (Enantiomer 2)]			7e-07	5.56e-07	3.65e-07			1.5e-07	5.4e-07								
CCc1nn(C)c2c1-c1c(Cl)ccc3c(CCCOc4cccc5cc(F)ccc45)c(C(=O)O)n(c13)CCCCN(C)C2 (racemic) [Example 39, (rac)-4-chloro-3-ethyl-7-{3-[(6-fluoronaphthalen-1-yl)oxy]propyl}-1,14-dimethyl-10,11,12,13,14,15-hexahydro-1H-pyrazolo[3′,4′:8,9][1,6]diazacycloundecino[10,11,1-hi]indole-8-carboxylic acid]	150	2.4e-07	3.3e-06	1.09e-06	6.38e-07								1.5e-07	2.4e-07			
CCc1c2c(nn1C)CN(C)CCCCn1c(C(=O)O)c(CCCOc3cccc4cc(F)ccc34)c3ccc(Cl)c-2c31 (single isomer, unassigned; enantiomer 1) [Example 6, 4-chloro-3-ethyl-7-{3-[(6-fluoronaphthalen-1-yl)oxy]propyl}-2,14-dimethyl-10,11,12,13,14,15-hexahydro-2H-pyrazolo[3′,4′:8,9][1,6]diazacycloundecino[10,11,1-hi]indole-8-carboxylic acid (Enantiomer 1)]	220		3.4e-06	6.96e-07	4.97e-07				2.4e-07		1.5e-07	3.6e-07					
CCc1c2c(nn1C)CN(CCC1CCOCC1)CCCCn1c(C(=O)O)c(CCCOc3cccc4cc(F)ccc34)c3ccc(Cl)c-2c31 (single isomer, unassigned; enantiomer 1) [Example 136, 4-chloro-3-ethyl-7-{3-[(6-fluoronaphthalen-1-yl)oxy]propyl}-2-methyl-14-[2-(oxan-4-yl)ethyl]-10,11,12,13,14,15-hexahydro-2H-pyrazolo[3′,4′:8,9][1,6]diazacycloundecino[10,11,1-hi]indole-8-carboxylic acid N-ethylethanamine salt (Enantiomer 1)]			7.3e-07	3.85e-07	2.35e-07												
Cc1c2c(nn1C)COCCn1c(C(=O)O)c(CCCOc3cccc4ccccc34)c3ccc(Cl)c-2c31 (racemic) [Example 87, (rac)-11-chloro-9,10-dimethyl-1-{3-[(naphthalen-1-yl)oxy]propyl}-4,5,7,9-tetrahydropyrazolo[4′,3′:7,8][1,4]oxazonino[6,5,4-hi]indole-2-carboxylic acid]	210	3.8e-07	4.7e-06	1.52e-06	1.32e-06									2.6e-07	170	5.5e-07	
Cc1c2c(nn1C)CN(CC(F)(F)F)CCCCn1c(C(=O)O)c(CCCOc3cccc4cc(F)ccc34)c3ccc(Cl)c-2c31 (single isomer, unassigned; enantiomer 1) [Example 59, 4-chloro-7-{3-[(6-fluoronaphthalen-1-yl)oxy]propyl}-2,3-dimethyl-14-(2,2,2-trifluoroethyl)-10,11,12,13,14,15-hexahydro-2H-pyrazolo[3′,4′:8,9][1,6]diazacycloundecino[10,11,1-hi]indole-8-carboxylic acid—Enantiomer 1]	1000	1.5e-06		3.79e-06	3.21e-06	350		1.1e-06			8e-07			1.2e-06			
CCc1c2c(nn1C)CN(CCOC)CCCCn1c(C(=O)O)c(CCCOc3cccc4cc(F)ccc34)c3ccc(Cl)c-2c31 (single isomer, unassigned; enantiomer 2) [Example 133, 4-chloro-3-ethyl-7-{3-[(6-fluoronaphthalen-1-yl)oxy]propyl}-14-(2-methoxyethyl)-2-methyl-10,11,12,13,14,15-hexahydro-2H-pyrazolo[3′,4′:8,9][1,6]diazacycloundecino[10,11,1-hi]indole-8-carboxylic acid N-ethylethanamine salt (Enantiomer 2)]			1e-06	4.97e-07	3.85e-07												
CCc1c2c(nn1C)CCCOCCn1c(C(=O)O)c(CCCOc3cccc4cc(F)ccc34)c3ccc(Cl)c-2c31 (racemic) [Example 124, (rac)-4-chloro-3-ethyl-7-{3-[(6-fluoro-1-naphthyl)oxy]propyl}-2-methyl-2,10,11,13,14,15-hexahydropyrazolo[4′,3′:7,8][1,4]oxazacycloundecino[6,5,4-hi]indole-8-carboxylic acid]	1800	8.3e-07	7e-06										1.1e-06	2.4e-06	950	4.4e-06	63.1
CCc1c2c(nn1C)COCCCCn1c(C(=O)O)c(CCCOc3cccc4cc(F)ccc34)c3ccc(Cl)c-2c31 (single isomer, unassigned; enantiomer 1) [Example 37, (+)-4-chloro-3-ethyl-7-{3-[(6-fluoronaphthalen-1-yl)oxy]propyl}-2-methyl-2,10,11,12,13,15-hexahydropyrazolo[4′,3′:9,10][1,6]oxazacycloundecino[8,7,6-hi]indole-8-carboxylic acid-N-ethylethanamine salt (Enantiomer 1)]	330	3.6e-07	1.6e-06	1.05e-06	1.12e-06									4.3e-07			
